Holding throughout (type): in vivo
The test system of experiment [1] is Uncinula necator (the causal agent of grape powdery mildew). Description: Test C: preventive spray on grape seedlings, disease rating (100 = 100% control; * 50 ppm, ** 10 ppm, *** 250 ppm). The settings on record: 100 = 100% disease control. The source says:
(§1) General protocol for preparing test suspensions for Tests A-E: the test compounds were first dissolved in acetone in an amount equal to 3% of the final volume and then suspended at the desired concentration (in ppm) in acetone and purified water (50/50 mix by volume) containing 250 ppm of the surfactant […] (polyhydric alcohol esters). The resulting test suspensions were then used in Tests A-E.
The test solution was sprayed to the point of run-off on grape seedlings. The following day the seedlings were inoculated with a spore suspension of Uncinula necator (the causal agent of grape powdery mildew) and incubated in a growth chamber at 20° C. for 12 days, after which time disease ratings were made.
(§2) Results for Tests A-E are given in Table A. In the Table, a rating of 100 indicates 100% disease control and a rating of 0 indicates no disease control (relative to the controls). An asterisk “*” or a double asterisk “**” or a triple asterisk “***” next to the rating value indicates a 50 ppm, 10 ppm and 250 ppm test suspension was used, respectively. A dash (-) indicates the compound was not tested.

The subject of experiment [2] is Blumeria graminis f. sp. tritici (the causal agent of wheat powdery mildew). Description: Test E: preventive spray on wheat seedlings, visual disease rating (100 = 100% control; * 50 ppm, ** 10 ppm, *** 250 ppm). The settings on record: 100 = 100% disease control; for pest or weed control at 250 ppm / Test E disease control rating: 250 ppm test suspension.
Description: as §1
The test suspension was sprayed to the point of run-off on wheat seedlings. The following day the seedlings were inoculated with a spore dust of Blumeria graminis f. sp. tritici, (also known as Erysiphe graminis f. sp. tritici, the causal agent of wheat powdery mildew) and incubated in a growth chamber at 20° C. for 8 days, after which time visual disease ratings were made.
as §2

Experiment [3] has as its system Zymoseptoria tritici (the causal agent of wheat leaf blotch). The experiment in a line: Test D: preventive spray on wheat seedlings, disease rating (100 = 100% control; * 50 ppm, ** 10 ppm, *** 250 ppm). Particulars: 100 = 100% disease control.
Description: as §1
The test solution was sprayed to the point of run-off on wheat seedlings. The following day the seedlings were inoculated with a spore suspension of Zymoseptoria tritici (the causal agent of wheat leaf blotch) and incubated in a saturated atmosphere at 24° C. for 48 h, and then moved to a growth chamber at 20° C. for 17 days, after which time disease ratings were made.
as §2

Experiment [4] concerns Puccinia recondita f. sp. tritici (the causal agent of wheat leaf rust). Description: Test B: preventive spray on wheat seedlings, disease rating (100 = 100% control; * 50 ppm, ** 10 ppm, *** 250 ppm). The settings on record: 100 = 100% disease control. In outline: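 Wheat seedlings sprayed to run-off with compound in acetone/water (50/50) containing 250 ppm PEG400, inoculated next day with Puccinia recondita f. sp. tritici spores. Held 24 h saturated at 20° C, then 6 days at 20° C; disease control rated 0–100 relative to controls.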

For experiment [5], the system named is Phakopsora pachyrhizi (the causal agent of Asian soybean rust). Description: Test A: preventive spray on soybean seedlings, visual disease rating (100 = 100% control; * 50 ppm, ** 10 ppm, *** 250 ppm). The settings on record: 100 = 100% disease control. In outline: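 Soybean seedlings sprayed to run-off with compound suspended in acetone/water with 250 ppm PEG400 surfactant, inoculated next day with P. pachyrhizi spores. Kept 24 h saturated at 22 °C, then 8 days at 22 °C before visual rating of disease control (0-100) relative to controls.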

For experiment [6] the test system is unchanged. The experiment in a line: Test F: Compound 32 or 64 alone and in mixtures on soybean seedlings, observed (Obsd) and Colby expected (Exp) disease control. Particulars: Phakopsora pachyrhizi; for pest or weed control at 0.303 ppm: Compound 64 0.303 ppm alone; for pest or weed control at 0.489 ppm: Compound 64 0.489 ppm alone. The source says: The general protocol for preparing test compositions for Test F was as follows: Compound 32, Compound 64, azoxystrobin, benzovindiflupyr, bixafen, chlorothalonil, cyproconazole, epoxiconazole, fenpropidin, fenpropimorph, fluindapyr, flutriafol, fluxapyroxad, metominostrobin, picoxystrobin, prothioconazole, pydiflumetofen, pyraclostrobin, tebuconazole and trifloxystrobin were obtained as unformulated, technical-grade materials. Copper hydroxide and mancozeb was obtained as a formulated product marketed under the trademarks KOCIDE 3000 and MANZATE, respectively. Unformulated materials were first dissolved in acetone and then suspended at the desired concentration (in ppm) in acetone and purified water (50/50 mix by volume) containing 250 ppm of the surfactant Trem® 014 (polyhydric alcohol esters). Formulated materials were dispersed in sufficient water to give the desired concentration, and neither organic solvent nor surfactant was added to the suspension. The resulting test mixtures were then used in Test F. The tests were run on four individual plants and the results reported as the mean average of the four plants.
The presence of a synergistic effect between two active ingredients was established with the aid of the Colby equation (see Colby, S. R. “Calculating Synergistic and Antagonistic Responses of Herbicide Combinations”, Weeds, (1967), 15, 20-22):
Using the method of Colby, the presence of a synergistic interaction between two active ingredients is established by first calculating the predicted activity, p, of the mixture based on activities of the two components applied alone. If p is lower than the experimentally established effect, synergism has occurred. In the equation above, A is the fungicidal activity in percentage control of one component applied alone at rate x. The B term is the fungicidal activity in percentage control of the second component applied at rate y. The equation estimates p, the expected fungicidal activity of the mixture of A at rate x with B at rate y if their effects are strictly additive and no interaction has occurred.
The test mixture was sprayed to the point of run-off on soybean seedlings. The following day the seedlings were inoculated with a spore suspension of Phakopsora pachyrhizi (the causal agent of Asian soybean rust) and incubated in a saturated atmosphere at 22° C. for 24 h and then moved to a growth chamber at 22° C. for 8 days, after which time visual disease ratings were made.
Results for Test F are given in Tables B-1 through I-1 for Compound 32 and Tables B-2 through I-2 for Compound 64. Each table corresponds to a set of evaluations performed together at the same time. In each table, a rating of 100 indicates 100% disease control and a rating of 0 indicates no disease control (relative to the controls). Columns labeled “Obsd” indicate the average of results observed from test run on four individual plants. Columns labeled “Exp” indicate the expected value for each treatment mixture using the Colby equation.

Setting [7] is: Blumeria graminis, wheat seedlings.
[8] abbreviates: Zymoseptoria tritici, 250 ppm test suspension, wheat seedlings.
Setting [9] is: 250 ppm test suspension, 0 = no control.
Where [10] appears, read: 50 ppm test suspension, 0 = no control.
Where [11] appears, read: Erysiphe necator, 50 ppm test suspension, 0 = no control.
[12] abbreviates: Puccinia recondita, 50 ppm test suspension, 0 = no control.
Where [13] appears, read: Puccinia recondita, 10 ppm test suspension, 0 = no control.

One may read the pest or weed control as how far the test organism was held down.

Molecules are shown by their SMILES. Marks after values point to notes of the source that are not given here.

On to `CCO/C(=C\Oc1ccc(Cn2cc(C(=O)OCCCCl)cn2)cc1)C(F)(F)F` [Compound 221, 3-chloropropyl 1-[[4-[[(1Z)-2-ethoxy-3,3,3-trifluoro-1-propen-1-yl]oxy]phenyl]methyl]-1H-pyrazole-4-carboxylate], for which the pest or weed control at 250 ppm in experiment [1] (Erysiphe necator, 250 ppm test suspension, grape seedlings) came out at 41%; in experiment [2] (setting [7]), 95%; in experiment [3] (setting [8]), 10%. The same compound had a pest or weed control at 10 ppm in experiment [4] (Puccinia recondita, 10 ppm test suspension, wheat seedlings) of 0%.

Regarding `CCO/C(=C\Oc1ccc(Cn2cc(C(=O)NCC(F)F)cn2)cc1)C(F)(F)F` [compound 436], the “Test C disease control rating” value in experiment [1] (setting [9]) is reported as 48*** %. For the same compound, the “Test A disease control rating” value in experiment [5] (setting [10]) came out at 99%. For the same compound, in experiment [2] (0 = no control), the “Test E disease control rating” value is listed as 0*** %. Further, in experiment [4] (setting [10]), the “Test B disease control rating” value was 0%.

In the case of `CCOC(=O)c1cnn(Cc2ccc(O/C=C(\OCC)C(F)(F)F)cc2)c1` [Compound 64, ethyl 1-[[4-[[(1Z)-2-ethoxy-3,3,3-trifluoro-1-propen-1-yl]oxy]phenyl]methyl]-1H-pyrazole-4-carboxylate], the pest or weed control at 0.303 ppm was found to be 53% in experiment [6] (Table B-2); 34% in experiment [6] (Table C-2); 49% in experiment [6] (Table D-2); 78% in experiment [6] (Table E-2); 37% in experiment [6] (Table F-2); 52% in experiment [6] (Table G-2). The pest or weed control at 0.303 ppm in experiment [6] (Table H-2) and in experiment [6] (Table I-2) was 50% each time. Moreover, the pest or weed control at 0.489 ppm is 68% in experiment [6] (Table B-2); 63% in experiment [6] (Table C-2); 63% in experiment [6] (Table D-2); 77% in experiment [6] (Table E-2); 68% in experiment [6] (Table F-2); 50% in experiment [6] (Table G-2). For the same compound, the figures for the pest or weed control at 0.489 ppm in experiment [6] (Table H-2) and in experiment [6] (Table I-2) were 70% and 81%, respectively. The pest or weed control at 250 ppm was found to be 99% in experiment [2] (setting [7]); 73% in experiment [3] (setting [8]); 99% in experiment [4] (Puccinia recondita, 250 ppm test suspension, wheat seedlings).

Turning to `COC(COc1ccc(Cn2cc(Br)cn2)cc1)(O[Si](C)(C)C)C(F)(F)F` (stereo not drawn) [compound 395], the pest or weed control at 50 ppm in experiment [1] (setting [11]) is 100%; in experiment [5] (Phakopsora pachyrhizi, 50 ppm test suspension, 0 = no control) it was 100%; in experiment [4] (setting [12]) it was 100%.

In the case of `CCOC(=O)c1cnn(Cc2ccc(OCC3(C(F)(F)F)OCCO3)s2)c1` [compound 273], the pest or weed control at 250 ppm in experiment [1] (Erysiphe necator, 250 ppm test suspension, 0 = no control) turned out to be 49%; in experiment [2] (Blumeria graminis, 0 = no control), 65%; in experiment [3] (Zymoseptoria tritici, 250 ppm test suspension, 0 = no control) it was 20%. For the same compound, the pest or weed control at 50 ppm in experiment [4] (setting [12]) is 0%.

Consider `O=C(COC(=O)c1cnn(Cc2ccc(OCC3(C(F)(F)F)OCCO3)cc2)c1)c1ccccc1` [compound 170], for which, in experiment [1] (50 ppm test suspension, grape seedlings), the “Test C disease control rating” value is on record as 100* %. The “Test A disease control rating” value in experiment [5] (10 ppm test suspension, soybean seedlings) is 100%. For the same compound, the “Test B disease control rating” value in experiment [4] (10 ppm test suspension, wheat seedlings) is listed as 0%.

For `CCOC(=O)c1cnn(Cc2cccc(O/C=C(\OCC)C(F)(F)F)c2)c1` [Compound 265, ethyl 1-[[3-[[(1Z)-2-ethoxy-3,3,3-trifluoro-1-propen-1-yl]oxy]phenyl]methyl]-1H-pyrazole-4-carboxylate], the pest or weed control at 50 ppm in experiment [1] (setting [11]) was determined as 98%; in experiment [4] (setting [12]), 0%.

Take `CCOC(=O)c1cnn(COc2ccc(O/C=C(\OCC)C(F)(F)F)cc2)c1` [Compound 364, ethyl 1-[[4-[[(1Z)-2-ethoxy-3,3,3-trifluoro-1-propen-1-yl]oxy]phenoxy]methyl]-1H-pyrazole-4-carboxylate]: the pest or weed control at 50 ppm was determined as 100% in experiment [1] (setting [11]); 56% in experiment [2] (Blumeria graminis, 50 ppm test suspension, 0 = no control); 0% in experiment [3] (Zymoseptoria tritici, 50 ppm test suspension, 0 = no control); 0% in experiment [4] (setting [12]).

Consider `CCOC(=O)c1cnn(Cc2cccc(O/C=C(\OCC)C(F)(F)F)c2F)c1` [compound 301], for which the “Test C disease control rating” value in experiment [1] (setting [10]) is listed as 100* %. Further, in experiment [5] (setting [10]), the “Test A disease control rating” value is listed as 100%. The “Test B disease control rating” value in experiment [4] (setting [10]) came out at 0%.

As to `CCOC(=O)c1cnn(COc2ccc(O/C=C(\OCC)C(F)(F)F)c(F)c2)c1` [compound 454], the pest or weed control at 10 ppm was found to be 100% in experiment [1] (Erysiphe necator, 10 ppm test suspension, 0 = no control); 100% in experiment [5] (Phakopsora pachyrhizi, 10 ppm test suspension, 0 = no control); 0% in experiment [4] (setting [13]).

With `CCOC(=O)c1cnn(Cc2ccc(OCC(O)(O)C(F)(F)F)c(F)c2F)c1` [Compound 431], in experiment [1] (setting [9]), the “Test C disease control rating” value is on record as 36%. The “Test E disease control rating” value in experiment [2] (0 = no control) was 96%. Besides, in experiment [3] (setting [9]), the “Test D disease control rating” value came to 93%.

Regarding `CCOC(=O)c1cnn(Cc2ccc(OCC3(C(F)(F)F)OCCO3)c(F)c2)c1` [Compound 263, ethyl 1-[[3-fluoro-4-[[2-(trifluoromethyl)-1,3-dioxolan-2-yl]methoxy]phenyl]methyl]-1H-pyrazole-4-carboxylate], the pest or weed control at 50 ppm in experiment [1] (setting [11]) worked out at 100%. In experiment [4] (setting [13]), the pest or weed control at 10 ppm came out at 0%.

For the origin of these results see US20240122180A1, “FUNGICIDAL HALOMETHYL KETONES AND HYDRATES AND THEIR MIXTURES” (FMC Corporation, priority 2020, published 2024).
